One assay has as its target T1, hNCC(T352I) (Homo sapiens, UniProt P55017, T352I).
T1 construct: expressed in transfected cells
T1 sequence (P55017 1-1021 T352I): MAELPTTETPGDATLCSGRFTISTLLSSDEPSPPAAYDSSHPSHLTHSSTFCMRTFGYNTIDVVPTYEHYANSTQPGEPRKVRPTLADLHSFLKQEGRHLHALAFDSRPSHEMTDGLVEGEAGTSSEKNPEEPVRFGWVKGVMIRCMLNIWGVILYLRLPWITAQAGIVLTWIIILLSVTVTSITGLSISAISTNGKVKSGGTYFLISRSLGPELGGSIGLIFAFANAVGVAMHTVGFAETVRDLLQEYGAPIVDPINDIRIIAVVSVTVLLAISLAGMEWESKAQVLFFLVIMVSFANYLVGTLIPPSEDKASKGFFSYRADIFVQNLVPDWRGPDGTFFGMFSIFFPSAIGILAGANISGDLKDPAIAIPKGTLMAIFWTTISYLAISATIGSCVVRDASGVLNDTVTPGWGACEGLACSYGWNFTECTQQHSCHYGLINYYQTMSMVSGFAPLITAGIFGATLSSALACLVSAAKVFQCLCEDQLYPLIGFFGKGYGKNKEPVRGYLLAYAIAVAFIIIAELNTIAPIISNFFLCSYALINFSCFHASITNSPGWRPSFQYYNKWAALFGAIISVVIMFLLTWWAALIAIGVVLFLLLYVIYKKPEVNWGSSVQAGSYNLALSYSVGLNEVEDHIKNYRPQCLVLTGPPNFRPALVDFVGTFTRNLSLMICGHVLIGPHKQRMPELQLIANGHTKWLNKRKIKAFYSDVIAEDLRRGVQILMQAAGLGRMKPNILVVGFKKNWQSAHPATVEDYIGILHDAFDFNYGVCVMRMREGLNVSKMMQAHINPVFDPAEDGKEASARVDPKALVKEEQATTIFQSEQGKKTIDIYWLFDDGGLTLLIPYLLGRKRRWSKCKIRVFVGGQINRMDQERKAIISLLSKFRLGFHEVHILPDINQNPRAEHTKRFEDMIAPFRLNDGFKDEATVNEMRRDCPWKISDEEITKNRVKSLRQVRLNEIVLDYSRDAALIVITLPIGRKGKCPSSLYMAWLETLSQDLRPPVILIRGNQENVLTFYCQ
In words: 125I- uptake assay, hNCC(T352I) variant. Format: cell-based. To be noted: 100 μM polythiazide. The method, then:
(§1) HEK293S cell lines, cultured in 293 Freestyle medium (Life Technologies; plus 10% fetal bovine serum), stably expressing hNCC and its variants were generated following published protocols. Cells were transfected using Lipofectamine 3000 (Invitrogen) with a pSBbi-RP-based plasmid containing hNCC or its variants and the SB100X vector. Puromycin (2 μg/mL; Gemini Bio-Products) was used for selection of stable cell lines.
To prepare for the uptake experiment, cells were plated at 0.5 × 10^6 cells/well in 24-well plates one day in advance. To activate NCC, cells were treated with a chloride-free hypotonic solution composed of 67.5 mM sodium-, 2.5 mM potassium-, 0.25 mM magnesium-, and 0.25 mM calcium-gluconate, as well as 7.5 mM HEPES pH 7.4 (buffered using Tris) at 37 °C for 10 min[72]. After the activation step, the experiments were carried out at room temperature. Ten minutes before the start of ^125I^− uptake, 70 μM Bumetanide (Thermo Scientific Chemicals) and 100 μM 4,4′-diisothiocyanatostilbene-2,2′-disulfonic acid (DIDS; Sigma) were added to suppress background iodide uptake activity. Indicated thiazide diuretics were also added to the indicated concentrations 10 min before the start of ^125I^− uptake. […] Cells lysed using 1% sodium dodecyl sulfate (SDS) were analyzed by scintillation counting.

The target in the next assay is T2, hNCC(C472F) (Homo sapiens, UniProt P55017, C472F).
T2 construct: expressed in transfected cells
T2 sequence (P55017 1-1021 C472F): T1 sequence (P55017 1-1021 T352I) with I352T, C472F
In words: 125I- uptake assay, hNCC(C472F) variant. The format is cell-based. The method, then:
as §1
To prepare for the uptake experiment, cells were plated at 0.5 × 10^6 cells/well in 24-well plates one day in advance. To activate NCC, cells were treated with a chloride-free hypotonic solution composed of 67.5 mM sodium-, 2.5 mM potassium-, 0.25 mM magnesium-, and 0.25 mM calcium-gluconate, as well as 7.5 mM HEPES pH 7.4 (buffered using Tris) at 37 °C for 10 min[72]. After the activation step, the experiments were carried out at room temperature. Ten minutes before the start of ^125I^− uptake, 70 μM Bumetanide (Thermo Scientific Chemicals) and 100 μM 4,4′-diisothiocyanatostilbene-2,2′-disulfonic acid (DIDS; Sigma) were added to suppress background iodide uptake activity. Indicated thiazide diuretics were also added to the indicated concentrations 10 min before the start of ^125I^− uptake. The original buffer was switched to an uptake buffer composed of 135 mM Na-gluconate, 5 mM K-gluconate, 1 mM Mg-gluconate, 1 mM Ca-gluconate, 70 μM bumetanide, 100 μM DIDS, 1 mM NaI, 0.25 μCi/ml Na^125I (American Radiolabeled Chemicals, Inc.), and 15 mM HEPES pH 7.4 (buffered using Tris), in the presence or absence of thiazide diuretics to initiate ^125I^− uptake. The ^125I^− uptake process lasted 1 h and was stopped by two rapid washes using ice-cold 110 mM MgCl2. Cells lysed using 1% sodium dodecyl sulfate (SDS) were analyzed by scintillation counting.

Numbering of substitutions follows the chain as printed. Entries after “also recorded” stand apart in the source; their conditions may differ.

Usually inhibition stands for the relative decrease from the control value, in per cent. In general, IC50 refers to the concentration that inhibits the measured activity by half.

Consider `CN1C(CSCC(F)(F)F)Nc2cc(Cl)c(S(N)(=O)=O)cc2S1(=O)=O` (stereo not shown) [polythiazide], for which, at hNCC(T352I), the “inhibition of transport activity” value is reported as “fully inhibited; also recorded: completely inhibited”. Moreover, the inhibition at 100 µM on hNCC(C472F) (100 μM polythiazide, C472F, read-out: inhibition of transport activity) was around 50%. For the same molecule, the “decrease in potency relative to hNCC(WT)” value on hNCC(C472F) (C472F substitution) was “approximately 200,000 fold”. For the same molecule, the half-maximal inhibitory concentration (IC50) on hNCC(C472F) (C472F substitution, estimated from ~50% inhibition at 100 μM) was around 100 µM.

These data come from paper PMC12365235, “Molecular mechanisms of thiazide-like diuretics-mediated inhibition of the human Na-Cl cotransporter” (Nature Communications, 2025).
